# EP3858439A1 (priority 2020, dated 2021)
# Where a name gives a salt, the structure may show the parent alone.
# Target: T1, human µ-opioid receptor (Homo sapiens, UniProt P35372)
# T1 construct: expressed in transfected cells; host or cells: CHO-K1
# Assay: Binding assay to human µ-opioid receptor ([3H]-DAMGO displacement)
# Settings: not given
# Description: Binding assay to human µ-opioid receptor
# Transfected CHO-K1 cell membranes (20 µg) were incubated with [^3H]-DAMGO (1 nM) in assay buffer containing Tris-HCl 50 mM, MgCl2 5 mM at pH 7.4.
# Plates were incubated at 27 °C for 60 min. After the incubation period, the reaction mixture was then transferred to MultiScreen HTS, FC plates (Millipore), filtered and plates were washed 3 times with ice-cold 10 mM Tris-HCl (pH 7.4).
# Filters were dried and counted at approximately 40% efficiency in a MicroBeta scintillation counter (Perkin-Elmer) using EcoScint liquid scintillation cocktail.
# T1 sequence (P35372 whole entry): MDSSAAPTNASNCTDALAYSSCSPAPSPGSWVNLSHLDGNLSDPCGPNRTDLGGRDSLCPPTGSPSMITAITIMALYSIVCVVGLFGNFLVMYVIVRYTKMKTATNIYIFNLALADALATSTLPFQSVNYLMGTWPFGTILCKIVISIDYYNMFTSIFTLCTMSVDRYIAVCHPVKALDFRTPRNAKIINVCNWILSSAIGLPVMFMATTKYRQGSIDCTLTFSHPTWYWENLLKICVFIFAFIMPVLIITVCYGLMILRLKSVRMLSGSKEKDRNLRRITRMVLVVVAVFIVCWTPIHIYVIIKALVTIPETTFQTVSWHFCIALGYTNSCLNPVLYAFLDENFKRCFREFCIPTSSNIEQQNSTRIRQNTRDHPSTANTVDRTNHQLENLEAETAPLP
row,Structure (SMILES),Ki [µM]
1,"CNCC(Cc1ccccc1F)C(=O)N1CCC(c2ccccc2)(N(C)C)CC1 (stereo not drawn) [Example 57, 1-(4-(dimethylamino)-4-phenylpiperidin-1-yl)-2-(2-fluorobenzyl)-3-(methylamino)propan-1-one dihydrochloride]",< 0.1
2,"CNCC(Cc1ccccc1)C(=O)N1CCC(c2ccccc2)(N(C)C)CC1 (stereo not drawn) [Example 70, 2-benzyl-1-(4-(dimethylamino)-4-phenylpiperidin-1-yl)-3-(methylamino)propan-1-one]",0.1 to 0.5
3,"Cc1ccccc1CC(CN)C(=O)N1CCC(c2ccccc2)(N(C)C)CC1 (stereo not drawn) [Example 75, 3-Amino-1-(4-(dimethylamino)-4-phenylpiperidin-1-yl)-2-(2-methylbenzyl)propan-1-one dihydrochloride]",0.1 to 0.5
4,"CN(C)C1(c2ccccc2)CCN(C(=O)C(CNCc2ccccc2)Cc2ccccc2)CC1 (stereo not drawn) [Example 76, 2-Benzyl-3-(benzylamino)-1-(4-(dimethylamino)-4-phenylpiperidin-1-yl)propan-1-one dihydrochloride]",< 0.1
5,"CNC[C@H](Cc1ccccc1)C(=O)N1CCC(c2ccccc2)(N(C)C)CC1 [Example 79, (S)-2-Benzyl-1-(4-(dimethylamino)-4-phenylpiperidin-1-yl)-3-(methylamino)propan-1-one dihydrochloride]",< 0.1
6,"CNC[C@@H](C(=O)N1CCC(c2ccccc2)(N(C)C)CC1)[C@H](C)c1ccccc1 [Example 85, (2S,3S)-1-(4-(Dimethylamino)-4-phenylpiperidin-1-yl)-2-((methylamino)methyl)-3-phenylbutan-1-one]",0.1 to 0.5
7,"CNC[C@H](C(=O)N1CCC(c2ccccc2)(N(C)C)CC1)[C@H](C)c1ccccc1 [Example 87, (2R,3S)-1-(4-(dimethylamino)-4-phenylpiperidin-1-yl)-2-((methylamino)methyl)-3-phenylbutan-1-one]",0.1 to 0.5

# Same assay, conditions: Table 2; transfected CHO-K1 cell membranes, [3H]-DAMGO 1 nM, 60 min at 27 °C; read-out: Binding µ
row,Structure (SMILES),Ki [µM]
1,"CC[C@@H](c1ccccc1)[C@@H](CNC)C(=O)N1CCC(NC)(c2ccc(F)cc2)CC1 [Example 65, (2S,3R)-1-(4-(4-fluorophenyl)-4-(methylamino)piperidin-1-yl)-2-((methylamino)methyl)-3-phenylpentan-1-one]",< 0.1
2,"CC[C@@H](c1cccc(Cl)c1)[C@@H](CN)C(=O)N1CCC(c2ccccc2)(N(C)C)CC1 [Example 66, (2S,3R)-2-(aminomethyl)-3-(3-chlorophenyl)-1-(4-(dimethylamino)-4-phenylpiperidin-1-yl)pentan-1-one]",< 0.1
3,"CC[C@@H](c1cccc(Cl)c1)[C@@H](CNC)C(=O)N1CCC(c2ccccc2)(N(C)C)CC1 [Example 67, (2S,3R)-3-(3-chlorophenyl)-1-(4-(dimethylamino)-4-phenylpiperidin-1-yl)-2-((methylamino)methyl)pentan-1-one]",< 0.1
4,"CC[C@@H](c1cccc(Cl)c1)[C@@H](CNC)C(=O)N1CCC(NC)(c2ccc(F)cc2)CC1 [Example 69, (2S,3R)-3-(3-chlorophenyl)-1-(4-(4-fluorophenyl)-4-(methylamino)piperidin-1-yl)-2-((methylamino)methyl)pentan-1-one]",< 0.1
5,"CNC[C@H](C(=O)N1CCC(c2ccccc2)(N(C)C)CC1)[C@@H](C)c1ccccc1 [Example 86, (2R,3R)-1-(4-(dimethylamino)-4-phenylpiperidin-1-yl)-2-((methylamino)methyl)-3-phenylbutan-1-one]",< 0.1
